Test results reported in paper PMC7281072 (Cancers, 2020).

Assays:
Assay type in all cases: cell-based, human
ERK1,2 phosphorylation [1] = experiment: ERK1/2 phosphorylation ELISA, OVCAR-5 cells; conditions: for Vmax ± SE, pERK 1/2 inhibition: Michaelis Menten model; for IC50: Homo sapiens, read-out: IC50, pERK 1/2 inhibition
ERK1,2 phosphorylation [2] = experiment: ERK1/2 phosphorylation ELISA, OVCAR-3 cells; conditions: for Vmax ± SE, pERK 1/2 inhibition: Michaelis Menten model; for IC50: Homo sapiens, read-out: IC50, pERK 1/2 inhibition
ERK1,2 phosphorylation [3] = experiment: ERK1/2 phosphorylation ELISA, SK-OV-3 cells; conditions: for Vmax ± SE, pERK 1/2 inhibition: Michaelis Menten model; for IC50: Homo sapiens, read-out: IC50, pERK 1/2 inhibition
ERK1,2 phosphorylation [4] = experiment: ERK1/2 phosphorylation ELISA, UWB1.289 cells; conditions: for Vmax ± SE, pERK 1/2 inhibition: Michaelis Menten model; for IC50: Homo sapiens, read-out: IC50, pERK 1/2 inhibition
ERK1,2 phosphorylation [5] = experiment: ERK1/2 phosphorylation ELISA, UWB1.289+BRCA1 cells; conditions: for Vmax ± SE, pERK 1/2 inhibition: Michaelis Menten model; for IC50: Homo sapiens, read-out: IC50, pERK 1/2 inhibition
AKT1,2 phosphorylation [6] = experiment: AKT phosphorylation ELISA, OVCAR-5 cells; conditions: for Vmax ± SE, pAKT 1/2 inhibition: Michaelis Menten model; for IC50: Homo sapiens, read-out: IC50, pAKT 1/2 inhibition
AKT1,2 phosphorylation [7] = experiment: AKT phosphorylation ELISA, SK-OV-3 cells; conditions: for Vmax ± SE, pAKT 1/2 inhibition: Michaelis Menten model; for IC50: Homo sapiens, read-out: IC50, pAKT 1/2 inhibition
AKT1,2 phosphorylation [8] = experiment: AKT phosphorylation ELISA, UWB1.289 cells; conditions: for Vmax ± SE, pAKT 1/2 inhibition: Michaelis Menten model; for IC50: Homo sapiens, read-out: IC50, pAKT 1/2 inhibition
AKT1,2 phosphorylation [9] = experiment: AKT phosphorylation ELISA, UWB1.289+BRCA1 cells; design: Vmax ± SE, pAKT 1/2 inhibition: unit not given beside the values; conditions: for Vmax ± SE, pAKT 1/2 inhibition: Michaelis Menten model; for IC50: Homo sapiens, read-out: IC50, pAKT 1/2 inhibition

SMILES: C[C@]12CC[C@H]3[C@@H](CCC4=CC(=O)NCC[C@@]43C)[C@@H]1CC[C@@H]2OC(=O)CCOc1ccc(N(CCCl)CCCl)cc1 [ENGA-L06E, 5a,7a-dimethyl-2-oxo-2,3,4,5,5a,5b,6,7,7a,8,9,10,10a,10b,11,12-hexa decahydrocyclopenta [5, 6] naphtho [1,2-d] azepin-8-yl 3-(4-(bis(2-chloroethyl)amino)phenoxy) propanoate]
- Vmax ± SE, pERK 1/2 inhibition (ERK1,2 phosphorylation [1]; 15 min): 68.95 ± 3.21
- Vmax ± SE, pERK 1/2 inhibition (ERK1,2 phosphorylation [1]; 30 min): 74.99 ± 2.47
- Vmax ± SE, pERK 1/2 inhibition (ERK1,2 phosphorylation [1]; 60 min): 80.67 ± 1.52
- IC50 (ERK1,2 phosphorylation [1]; 0.25 h, 15 min): 20 µM
- IC50 (ERK1,2 phosphorylation [1]; 0.5 h, 30 min): 14.1 µM
- IC50 (ERK1,2 phosphorylation [1]; 1 h, 60 min): 9.18 µM
- Vmax ± SE, pERK 1/2 inhibition (ERK1,2 phosphorylation [2]; 15 min): 53.57 ± 3.41
- Vmax ± SE, pERK 1/2 inhibition (ERK1,2 phosphorylation [2]; 30 min): 80.62 ± 1.98
- Vmax ± SE, pERK 1/2 inhibition (ERK1,2 phosphorylation [2]; 60 min): 93.91 ± 3.61
- IC50 (ERK1,2 phosphorylation [2]; 0.25 h, 15 min): 49 µM
- IC50 (ERK1,2 phosphorylation [2]; 0.5 h, 30 min): 14.5 µM
- IC50 (ERK1,2 phosphorylation [2]; 1 h, 60 min): 12.8 µM
- Vmax ± SE, pERK 1/2 inhibition (ERK1,2 phosphorylation [3]; 15 min): 79.14 ± 2.62
- Vmax ± SE, pERK 1/2 inhibition (ERK1,2 phosphorylation [3]; 30 min): 82.95 ± 1.69
- Vmax ± SE, pERK 1/2 inhibition (ERK1,2 phosphorylation [3]; 60 min): 84.71 ± 1.60
- IC50 (ERK1,2 phosphorylation [3]; 0.25 h, 15 min): 13 µM
- IC50 (ERK1,2 phosphorylation [3]; 0.5 h, 30 min): 11 µM
- IC50 (ERK1,2 phosphorylation [3]; 1 h, 60 min): 8.78 µM
- Vmax ± SE, pERK 1/2 inhibition (ERK1,2 phosphorylation [4]; 15 min): 76.21 ± 2.11
- Vmax ± SE, pERK 1/2 inhibition (ERK1,2 phosphorylation [4]; 60 min): 89.63 ± 2.53
- IC50 (ERK1,2 phosphorylation [4]; UWB1289, 0.25 h, 15 min): 6.81 µM
- IC50 (ERK1,2 phosphorylation [4]; UWB1289, 0.5 h, 30 min): 4.12 µM
- IC50 (ERK1,2 phosphorylation [4]; UWB1289, 1 h, 60 min): 3.53 µM
- Vmax ± SE, pERK 1/2 inhibition (ERK1,2 phosphorylation [5]; 15 min): 59.43 ± 1.10
- Vmax ± SE, pERK 1/2 inhibition (ERK1,2 phosphorylation [5]; 30 min): 72.79 ± 1.14
- Vmax ± SE, pERK 1/2 inhibition (ERK1,2 phosphorylation [5]; 60 min): 74.35 ± 0.49
- IC50 (ERK1,2 phosphorylation [5]; 0.25 h, 15 min): 28.7 µM
- IC50 (ERK1,2 phosphorylation [5]; 0.5 h, 30 min): 12.4 µM
- IC50 (ERK1,2 phosphorylation [5]; 1 h, 60 min): 9.29 µM
- Vmax ± SE, pAKT 1/2 inhibition (AKT1,2 phosphorylation [6]; 15 min): 57.76 ± 3.49
- Vmax ± SE, pAKT 1/2 inhibition (AKT1,2 phosphorylation [6]; 30 min): 59.24 ± 0.49
- Vmax ± SE, pAKT 1/2 inhibition (AKT1,2 phosphorylation [6]; 60 min): 62.49 ± 0.25
- IC50 (AKT1,2 phosphorylation [6]; 0.25 h, 15 min): > 50 µM
- IC50 (AKT1,2 phosphorylation [6]; 0.5 h, 30 min): 49.8 µM
- IC50 (AKT1,2 phosphorylation [6]; 1 h, 60 min): 29.5 µM
- Vmax ± SE, pAKT 1/2 inhibition (AKT1,2 phosphorylation [7]; 15 min): 79.23 ± 0.39
- Vmax ± SE, pAKT 1/2 inhibition (AKT1,2 phosphorylation [7]; 30 min): 86.10 ± 1.13
- Vmax ± SE, pAKT 1/2 inhibition (AKT1,2 phosphorylation [7]; 60 min): 87.27 ± 0.59
- IC50 (AKT1,2 phosphorylation [7]; 0.25 h, 15 min): 25.9 µM
- IC50 (AKT1,2 phosphorylation [7]; 0.5 h, 30 min): 22.3 µM
- IC50 (AKT1,2 phosphorylation [7]; 1 h, 60 min): 21.4 µM
- Vmax ± SE, pAKT 1/2 inhibition (AKT1,2 phosphorylation [8]; 15 min): 62.12 ± 1.41
- Vmax ± SE, pAKT 1/2 inhibition (AKT1,2 phosphorylation [8]; 30 min): 64.94 ± 4.22
- Vmax ± SE, pAKT 1/2 inhibition (AKT1,2 phosphorylation [8]; 60 min): 71.12 ± 3.34
- IC50 (AKT1,2 phosphorylation [8]; UWB1289, 0.25 h, 15 min): 16.9 µM
- IC50 (AKT1,2 phosphorylation [8]; UWB1289, 0.5 h, 30 min): 14.4 µM
- IC50 (AKT1,2 phosphorylation [8]; UWB1289, 1 h, 60 min): 11.8 µM
- Vmax ± SE, pAKT 1/2 inhibition (AKT1,2 phosphorylation [9]; 15 min): 59.78 ± 4.67
- Vmax ± SE, pAKT 1/2 inhibition (AKT1,2 phosphorylation [9]; 30 min): 57.10 ± 3.38
- Vmax ± SE, pAKT 1/2 inhibition (AKT1,2 phosphorylation [9]; 60 min): 63.12 ± 4.19
- IC50 (AKT1,2 phosphorylation [9]; 0.25 h, 15 min): 44.4 µM
- IC50 (AKT1,2 phosphorylation [9]; 0.5 h, 30 min): 40.3 µM
- IC50 (AKT1,2 phosphorylation [9]; 1 h, 60 min): 25.8 µM
